Experimental data taken from ChEMBL document CHEMBL1201862, “PubChem BioAssay data set” (2004).
Activity calls are given as the source filed them.

Tests used:
[1] = molecular target: T1, Sentrin-specific protease 8 (Homo sapiens, UniProt Q96LD8); assay type: functional
T1 sequence (Q96LD8 whole entry): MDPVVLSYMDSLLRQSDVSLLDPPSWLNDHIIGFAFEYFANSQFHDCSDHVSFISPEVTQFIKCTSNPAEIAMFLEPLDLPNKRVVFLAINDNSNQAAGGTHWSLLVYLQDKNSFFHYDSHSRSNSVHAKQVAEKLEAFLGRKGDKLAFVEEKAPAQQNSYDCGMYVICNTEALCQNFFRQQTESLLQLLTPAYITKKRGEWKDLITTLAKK

[2] = molecular target: T1, Sentrin-specific protease 8; assay type: functional; remark: listed apart in the source
[3] = molecular target: T2, Methionyl-tRNA synthetase, putative (Trypanosoma brucei brucei, UniProt Q38C91); assay type: functional, Trypanosoma brucei brucei strain 927/4 GUTat10.1
T2 sequence (Q38C91 whole entry): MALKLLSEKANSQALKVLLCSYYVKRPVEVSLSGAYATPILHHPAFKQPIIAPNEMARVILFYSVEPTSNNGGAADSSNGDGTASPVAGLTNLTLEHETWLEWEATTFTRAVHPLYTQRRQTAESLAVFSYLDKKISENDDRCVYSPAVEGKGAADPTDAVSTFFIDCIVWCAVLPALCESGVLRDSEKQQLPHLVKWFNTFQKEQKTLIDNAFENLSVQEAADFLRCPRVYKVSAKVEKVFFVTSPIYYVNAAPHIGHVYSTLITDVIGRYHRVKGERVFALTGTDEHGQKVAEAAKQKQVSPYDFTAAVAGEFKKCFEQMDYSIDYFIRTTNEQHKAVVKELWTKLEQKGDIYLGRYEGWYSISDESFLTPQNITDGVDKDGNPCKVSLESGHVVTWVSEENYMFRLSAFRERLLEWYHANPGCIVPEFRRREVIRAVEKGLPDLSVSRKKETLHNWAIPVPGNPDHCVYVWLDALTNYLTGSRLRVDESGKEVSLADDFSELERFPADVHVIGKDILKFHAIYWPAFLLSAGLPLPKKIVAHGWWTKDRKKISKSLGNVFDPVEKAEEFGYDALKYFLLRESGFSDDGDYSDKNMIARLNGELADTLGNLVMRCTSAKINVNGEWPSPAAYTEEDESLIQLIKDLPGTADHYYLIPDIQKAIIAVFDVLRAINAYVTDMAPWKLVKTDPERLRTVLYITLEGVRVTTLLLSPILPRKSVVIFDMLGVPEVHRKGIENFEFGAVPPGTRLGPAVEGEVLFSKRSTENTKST

[4] = Counterscreen for inhibitors of Trypanosoma brucei methionyl tRNA synthetase (MetRS): Luminescence-based cell-based high throughput dose response assay to identify compounds that are cytotoxic to Jurkat human T lymphocyte cells.; assay type: functional
[5] = viability loss in HeLa cells – cytotoxicity control for MgcRacGAP inhibitor project, dose response (AID 624300); assay type: functional
[6] = molecular target: Induced myeloid leukemia cell differentiation protein Mcl-1 (Homo sapiens, UniProt Q07820); assay type: functional
Sequence of Induced myeloid leukemia cell differentiation protein Mcl-1 (Q07820 whole entry): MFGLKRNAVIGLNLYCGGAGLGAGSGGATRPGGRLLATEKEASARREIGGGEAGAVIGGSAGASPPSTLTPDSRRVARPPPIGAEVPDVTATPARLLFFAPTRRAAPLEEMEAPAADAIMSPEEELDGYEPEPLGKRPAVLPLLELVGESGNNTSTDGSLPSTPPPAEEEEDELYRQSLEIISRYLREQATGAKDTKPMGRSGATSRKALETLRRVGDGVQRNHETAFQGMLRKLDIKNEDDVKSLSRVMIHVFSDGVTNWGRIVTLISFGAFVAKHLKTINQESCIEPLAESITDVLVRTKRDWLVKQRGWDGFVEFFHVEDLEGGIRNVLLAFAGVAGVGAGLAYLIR

[7] = molecular target: T3, Rac GTPase-activating protein 1 (Homo sapiens, UniProt Q9H0H5); experiment: blockers of MgcRacGAP-driven Rac1 GTP hydrolysis – biochemical, ADP Hunter fluorescence, primary and confirmatory, confirmation (AID 624330); assay type: functional
T3 sequence (Q9H0H5 whole entry): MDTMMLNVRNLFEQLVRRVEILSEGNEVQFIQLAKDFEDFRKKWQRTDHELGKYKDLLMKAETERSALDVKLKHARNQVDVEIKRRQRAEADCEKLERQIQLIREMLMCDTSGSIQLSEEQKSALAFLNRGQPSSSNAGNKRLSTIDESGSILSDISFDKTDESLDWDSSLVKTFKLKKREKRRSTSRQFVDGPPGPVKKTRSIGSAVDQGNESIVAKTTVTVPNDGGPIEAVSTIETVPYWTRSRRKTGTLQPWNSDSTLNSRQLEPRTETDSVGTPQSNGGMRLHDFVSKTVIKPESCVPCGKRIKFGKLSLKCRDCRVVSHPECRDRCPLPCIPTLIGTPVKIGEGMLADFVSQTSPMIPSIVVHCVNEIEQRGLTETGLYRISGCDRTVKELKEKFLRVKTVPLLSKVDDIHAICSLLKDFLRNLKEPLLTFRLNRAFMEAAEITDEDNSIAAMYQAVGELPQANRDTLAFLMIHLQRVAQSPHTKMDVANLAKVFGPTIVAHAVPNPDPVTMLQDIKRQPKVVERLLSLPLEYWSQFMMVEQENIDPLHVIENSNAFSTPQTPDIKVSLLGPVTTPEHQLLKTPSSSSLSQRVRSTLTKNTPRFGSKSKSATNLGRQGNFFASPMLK

[8] = Fluorescence-based cell-based high throughput dose response assay for inhibitors of the interaction of nucleotide-binding oligomerization domain containing 2 (NOD2) and the receptor-interacting serine-threonine kinase 2 (RIPK2).; assay type: functional; details: Homo sapiens
[9] = molecular target: T4, Replicative DNA helicase DnaB (Mycobacterium tuberculosis, UniProt P9WMR3); experiment: DnaB intein splicing inhibitors, dose response, biochemical, cell-free fluorescence (AID 449749); assay type: functional
T4 sequence (P9WMR3 whole entry): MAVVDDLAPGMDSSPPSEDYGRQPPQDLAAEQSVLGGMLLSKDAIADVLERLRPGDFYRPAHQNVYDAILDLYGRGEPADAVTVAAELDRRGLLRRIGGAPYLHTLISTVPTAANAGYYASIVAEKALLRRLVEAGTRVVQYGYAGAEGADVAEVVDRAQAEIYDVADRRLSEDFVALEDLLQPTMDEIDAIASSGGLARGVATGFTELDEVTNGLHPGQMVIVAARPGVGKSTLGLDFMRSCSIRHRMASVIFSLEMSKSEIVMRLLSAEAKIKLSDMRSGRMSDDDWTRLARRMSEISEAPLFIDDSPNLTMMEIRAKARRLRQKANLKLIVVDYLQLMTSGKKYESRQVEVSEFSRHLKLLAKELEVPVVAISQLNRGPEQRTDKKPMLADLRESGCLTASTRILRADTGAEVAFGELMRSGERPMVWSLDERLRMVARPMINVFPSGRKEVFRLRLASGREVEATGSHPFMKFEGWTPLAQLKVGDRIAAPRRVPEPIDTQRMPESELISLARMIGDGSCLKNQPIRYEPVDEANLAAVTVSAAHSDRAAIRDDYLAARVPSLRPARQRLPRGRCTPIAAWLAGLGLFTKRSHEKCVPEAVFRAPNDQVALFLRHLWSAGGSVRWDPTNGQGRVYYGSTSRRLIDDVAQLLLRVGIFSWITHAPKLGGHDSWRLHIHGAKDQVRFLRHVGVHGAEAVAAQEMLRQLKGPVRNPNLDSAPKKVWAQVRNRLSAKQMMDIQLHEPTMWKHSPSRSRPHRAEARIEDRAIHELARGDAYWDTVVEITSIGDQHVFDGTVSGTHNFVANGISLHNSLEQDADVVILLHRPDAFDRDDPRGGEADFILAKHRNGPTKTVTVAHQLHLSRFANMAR

[10] = non-specific 3'UTR reporter inhibition in Clone20-Shn3RL – cell-based, Renilla luciferase, cherry-picked, counter-screen for Shn3 inhibitor project, dose response (AID 624133); assay type: functional
[11] = reduction of Shn3 3'UTR-driven luciferase in osteoblasts – cell-based, Clone20 osteoblasts, firefly luciferase, cherry-picked, dose response (AID 624132); assay type: functional;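 further: firefly luciferase luminescence from reporter carrying the Shn3 3'UTR in osteoblasts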
[12] = molecular target: FAD-linked sulfhydryl oxidase ALR (Homo sapiens, UniProt P55789); experiment: ALR-catalysed DTT oxidation blockers – biochemical, H2O2 detection, luminescence, cherry-pick, dose response (AID 493248)
Sequence of FAD-linked sulfhydryl oxidase ALR (P55789 whole entry): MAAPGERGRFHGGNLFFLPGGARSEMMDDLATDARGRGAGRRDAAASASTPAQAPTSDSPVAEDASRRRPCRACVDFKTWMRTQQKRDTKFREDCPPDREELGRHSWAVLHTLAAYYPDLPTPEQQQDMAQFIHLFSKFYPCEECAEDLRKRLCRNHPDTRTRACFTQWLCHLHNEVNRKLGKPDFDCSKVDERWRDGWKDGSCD

Beta Lactamase = Beta Lactamase (Pseudomonas aeruginosa, UniProt Q932Y6); experiment: BLA reporter interference, concentration series – BLA reporter cells, FRET fluorescence, artefact control for NOD2-RIPK2 interaction inhibitor project, dose response (AID 651552); assay type: functional, cell-based
Sequence of Beta Lactamase (Q932Y6 whole entry): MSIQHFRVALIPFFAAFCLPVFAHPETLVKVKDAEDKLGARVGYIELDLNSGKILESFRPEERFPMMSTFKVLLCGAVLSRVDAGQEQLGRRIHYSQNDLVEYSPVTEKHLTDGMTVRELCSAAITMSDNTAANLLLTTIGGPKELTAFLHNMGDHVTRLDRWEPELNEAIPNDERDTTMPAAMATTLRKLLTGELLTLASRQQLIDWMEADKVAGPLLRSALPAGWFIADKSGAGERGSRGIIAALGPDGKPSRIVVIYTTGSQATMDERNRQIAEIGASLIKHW

[13] = reduced cellular PGC1a acetyl-lysine signal – cell-based, cherry-picked samples, dose response (AID 720514); assay type: functional;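 further: potency may reflect raised or lowered acetylation signal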
Protein RecA = molecular target: T5, Protein RecA (Mycobacterium tuberculosis, UniProt P9WHJ3); experiment: Fluorescence Cell-Free Homogeneous Dose Retest to Identify Inhibitors of RecA-Intein Splicing Activity. [Related pubchem assays (depositor defined):AID2097, AID2223, AID489010, AID492950]; assay type: functional
T5 sequence (P9WHJ3 whole entry): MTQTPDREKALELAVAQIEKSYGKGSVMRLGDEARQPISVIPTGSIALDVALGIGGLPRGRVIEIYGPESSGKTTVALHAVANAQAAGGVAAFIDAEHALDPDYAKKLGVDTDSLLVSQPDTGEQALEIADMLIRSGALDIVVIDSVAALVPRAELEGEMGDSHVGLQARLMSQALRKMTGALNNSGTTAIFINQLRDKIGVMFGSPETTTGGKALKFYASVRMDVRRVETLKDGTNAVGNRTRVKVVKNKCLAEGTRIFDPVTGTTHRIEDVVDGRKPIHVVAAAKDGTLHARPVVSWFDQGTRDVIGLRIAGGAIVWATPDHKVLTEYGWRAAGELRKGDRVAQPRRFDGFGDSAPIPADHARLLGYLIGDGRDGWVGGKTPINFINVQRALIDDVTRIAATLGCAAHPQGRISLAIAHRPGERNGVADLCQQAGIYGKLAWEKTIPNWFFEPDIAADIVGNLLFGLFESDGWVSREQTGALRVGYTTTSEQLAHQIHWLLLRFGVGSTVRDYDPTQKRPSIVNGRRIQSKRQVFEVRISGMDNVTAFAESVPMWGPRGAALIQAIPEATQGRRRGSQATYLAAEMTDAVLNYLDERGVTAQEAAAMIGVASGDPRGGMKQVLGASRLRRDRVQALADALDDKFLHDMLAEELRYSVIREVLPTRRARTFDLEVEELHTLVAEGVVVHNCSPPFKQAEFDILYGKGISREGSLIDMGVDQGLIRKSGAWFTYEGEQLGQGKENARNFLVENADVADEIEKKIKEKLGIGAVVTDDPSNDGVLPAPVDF

[14] = loss of viability in HepG2 cells – cell-based, CellTiter-Glo, cherry-picked, cytotoxicity control for Shn3 inhibitor project, dose response (AID 624134); assay type: functional
[15] = molecular target: T6, RNA-binding protein pos-1 (Caenorhabditis elegans, UniProt G5EF15); experiment: disruptors of C. elegans POS-1 RNA interaction – biochemical, fluorescence polarization, dose response (AID 1964);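 further: purified POS-1 fused to maltose binding protein made in E. coli; potency of compounds blocking POS-1 binding to fluorescent RNA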
T6 sequence (G5EF15 whole entry): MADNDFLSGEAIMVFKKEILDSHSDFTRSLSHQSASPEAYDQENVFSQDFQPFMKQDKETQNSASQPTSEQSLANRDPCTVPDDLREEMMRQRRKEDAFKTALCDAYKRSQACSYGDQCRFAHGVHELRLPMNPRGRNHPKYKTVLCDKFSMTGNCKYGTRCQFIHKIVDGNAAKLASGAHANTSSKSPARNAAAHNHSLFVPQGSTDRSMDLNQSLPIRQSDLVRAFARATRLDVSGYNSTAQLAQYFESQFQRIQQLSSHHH

[16] = molecular target: T7, Zinc finger protein mex-5 (Caenorhabditis elegans, UniProt Q9XUB2); experiment: potency of MEX-5 RNA-binding blockers – biochemical, C. elegans, fluorescence polarization, dose response (AID 1960)
T7 sequence (Q9XUB2 whole entry): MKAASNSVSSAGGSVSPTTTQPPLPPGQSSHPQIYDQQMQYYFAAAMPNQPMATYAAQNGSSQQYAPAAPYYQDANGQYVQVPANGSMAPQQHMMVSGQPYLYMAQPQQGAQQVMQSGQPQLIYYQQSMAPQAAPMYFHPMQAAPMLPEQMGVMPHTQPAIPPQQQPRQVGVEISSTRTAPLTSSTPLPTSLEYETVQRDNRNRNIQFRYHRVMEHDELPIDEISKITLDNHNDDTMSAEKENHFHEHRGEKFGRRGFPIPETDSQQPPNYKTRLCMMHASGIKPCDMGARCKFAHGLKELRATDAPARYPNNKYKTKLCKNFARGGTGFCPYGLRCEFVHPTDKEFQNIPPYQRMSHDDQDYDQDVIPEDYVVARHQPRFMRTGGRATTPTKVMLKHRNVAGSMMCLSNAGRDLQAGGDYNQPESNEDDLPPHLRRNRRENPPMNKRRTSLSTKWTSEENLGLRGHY

[17] = Luminescence Cell-Based Dose Retest to Confirm Inhibitors of Cancer Stem Cells. [Related pubchem assays (depositor defined):AID2717, AID2721]; assay type: functional; details: Homo sapiens

CSc1nnc(C)c(/C=C/NOCc2cccc(F)c2)n1
IC50 [1]: 14 µM (active)
IC50 [2]: 69.9 µM (inactive)

Clc1ccccc1-c1ccc2ncnc(NCc3ccc4c(c3)OCO4)c2c1
IC50 [3]: 30 µM (inactive)
IC50 [4]: 83.3 µM (inactive)

CCOC(=O)CSc1nc(N)c(C(=O)Nc2ccc(N(C)C)cc2)s1
CC50 [5]: 100 µM (active)
IC50 [6]: < 0.4 µM (active)
IC50 [7]: 31.7 µM (active)

O=C(NCc1ccc2c(c1)OCO2)c1nc(S(=O)(=O)Cc2ccccc2)ncc1Cl
IC50 [8]: 4.89 µM (active)
AC50 [9]: 2.27 µM (active)
AC50 [10]: 21.7 µM (active)
AC50 [11]: 6.4 µM (active)
AC50 [12]: 0.505 µM (active)
IC50 (Beta Lactamase): 32.5 µM (inactive)
AC50 [13]: 21.7 µM (active)
EC50 (Protein RecA): 4.16 µM (active)
AC50 [14]: 40.5 µM (active)

COc1ccc(-c2[nH][nH]c(=O)c2NC(=O)c2ccc([N+](=O)[O-])cc2)cc1
IC50 [1]: 65.5 µM (inactive)
IC50 [2]: 47.2 µM (active)

CCNC(=O)O/N=C1\CCCCC1c1ccc([N+](=O)[O-])cc1[N+](=O)[O-] (configuration not stated)
IC50 [1]: 27.2 µM (active)
IC50 [2]: 14.4 µM (active)

Cc1cc(-c2ccccc2)nc(N/N=C/c2ccc(O)cc2O)n1
EC50 [15]: > 300 µM (not active)
CC50 [5]: 100 µM (active)
EC50 [16]: 54 µM (active)
AC50 [17]: 6.35 µM (active)
IC50 [7]: 69.1 µM (active)

COc1cc(/C=N/NC(=S)Nc2cccc(S(=O)(=O)N(C)C)c2)ccc1O
CC50 [5]: 100 µM (active)
IC50 [7]: 29 µM (active)
